In patent US6426231B1 (priority 1998, dated 2002):
Several values for one entry are separate records, joined by “and”; a condition that tells them apart may be missing. Identical values can stand only once. Entries after “also recorded” stand apart in the source; their conditions may differ. Like-named read-outs stand apart in the source and are kept apart here.

Legend:
[1] = target: αHL pore (Staphylococcus aureus, UniProt P09616); type: biochemical
[2] = target: WT-αHL pore (Staphylococcus aureus, UniProt P09616); type: biochemical; settings: pH 7.5
WT-αHL pore, sequence (P09616 27-319 limits assumed): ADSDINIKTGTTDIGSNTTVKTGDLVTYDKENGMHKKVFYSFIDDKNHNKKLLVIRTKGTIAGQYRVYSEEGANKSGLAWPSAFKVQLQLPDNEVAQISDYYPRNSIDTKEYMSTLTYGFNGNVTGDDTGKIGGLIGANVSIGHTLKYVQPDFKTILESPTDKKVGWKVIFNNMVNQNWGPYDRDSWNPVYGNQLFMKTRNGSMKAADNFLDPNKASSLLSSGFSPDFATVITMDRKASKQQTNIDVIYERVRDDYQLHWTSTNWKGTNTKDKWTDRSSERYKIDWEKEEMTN

[3] = target: αHL•βCD (Staphylococcus aureus, UniProt P09616); assay: biochemical; type: biochemical; settings: for K^Af (formation constant of αHL•βCD•A) / ΔG of analyte binding to αHL•βCD: pH 3.0
αHL•βCD, sequence (P09616 27-319 limits assumed): as above

[4] = type: binding; settings: pH 3.0
[5] = cited from earlier work

αHL pore, sequence (P09616 27-319 limits assumed): as above

α-cyclodextrin
block of the ionic current [1]: reversible partial blocks

heptakis-6-sulfato-β-cyclodextrin [s7βCD]
PK+/PNa+ [2]: 0.92 | dwell time (τ) of adapter on WT-αHL pore [2]: 846 ± 37 ms | g (conductance) [2]: 53 pS and 53 ± 6 pS

Cl.NC12CC3CC(CC(C3)C1)C2 [1-adamantanamine hydrochloride]
(IP·C·A IP·C)/(IP·C·A-IP) [3]: 0.294 ± 0.005 | Kd [3]: 109 ± 4.95 µM | Residence time (τ) of the analyte on αHL·βCD [3]: 1.42 ± 0.14 ms

CC(=O)NC12CC3CC(CC(C3)C1)C2 [N-(1-adamantyl)acetamide, N-(1-adamantyl)-acetamide]
(IP·C·A IP·C)/(IP·C·A-IP) [3]: 0.348 ± 0.003 | Kd [3]: 14 ± 2.24 µM | Residence time (τ) of the analyte on αHL·βCD [3]: 7.32 ± 2.13 ms

OCCC12CC3CC(CC(C3)C1)C2 [1-adamantaneethanol]
(IP·C·A IP·C)/(IP·C·A-IP) [3]: 0.348 ± 0.003 | Kd [3]: 3.33 ± 1.07 µM | Residence time (τ) of the analyte on αHL·βCD [3]: 30.6 ± 2.42 ms

NC(=O)C12CC3CC(CC(C3)C1)C2 [1-adamantanecarboxamide]
(IP·C·A IP·C)/(IP·C·A-IP) [3]: 0.333 ± 0.005 | Kd [3]: 34.2 ± 2.77 µM | Residence time (τ) of the analyte on αHL·βCD [3]: 3.99 ± 0.18 ms

β-cyclodextrin [βCD]
dwell time (τ) of adapter on WT-αHL pore [2]: 0.84 ms | g (conductance) [2]: 240 pS and 240 ± 5 pS | block of the ionic current [1]: reversible partial blocks | partial block of the channel [1]: 64% | single channel current level with βCD bound [1]: −11.5 pA | K^Cf (equilibrium formation constant αHL•βCD) ([1]; pH 3): 475 M⁻¹ | conductance of αHL in the presence of βCD ([1]; pH 3): 272 pS | k^Coff ([1]; pH 3): 115 s⁻¹ | k^Con ([1]; pH 3): 54600 M⁻¹ s⁻¹

Cl.NC1C2CC3CC(C2)CC1C3 (stereo not shown) [2-adamantanamine hydrochloride]
K^Af (formation constant of analyte with βCD in solution) [4]: 9.84±2.19×10^3 M^−1 | ΔG of analyte binding to βCD in solution [4]: -5.5 kcal/mol | (IP·C·A IP·C)/(IP·C·A-IP) [3]: 0.286 ± 0.004 | Kd [3]: 98.6 ± 14.3 µM | Residence time (τ) of the analyte on αHL·βCD [3]: 2.54 ± 0.21 ms | conductance of the partially blocked channel (αHL•βCD) with guest [3]: 126.5 pS | residence time (τ) of guest [3]: 2.54 ms | residence time of βCD•A on αHL compared with βCD [3]: greater than βCD itself | single channel current level, additional block of αHL•βCD [3]: −5.7 pA | K^Af (formation constant of αHL•βCD•A) [3]: 1.03±0.15×10^4 M^−1 | ΔG of analyte binding to αHL•βCD [3]: -5.5 kcal/mol | effect on the completely open channel ([1]; hydrochloride): does not affect; also recorded: no effect

O=C(O)C12CC3CC(CC(C3)C1)C2 [1-adamantanecarboxylic acid]
Literature ΔG for binding to βCD ([5]; pH 4.05): -7.5 kcal/mol | Literature ΔG for binding to βCD ([5]; pH 7.2): -6.4 kcal/mol | K^Af (formation constant of analyte with βCD in solution) [4]: 5.76±1.50×10^4 M^−1 | ΔG of analyte binding to βCD in solution [4]: -6.5 kcal/mol | (IP·C·A IP·C)/(IP·C·A-IP) [3]: 0.346 ± 0.005 | Kd [3]: 7.53 ± 1.16 µM | Residence time (τ) of the analyte on αHL·βCD [3]: 14.0 ± 0.79 ms | conductance of the partially blocked channel (αHL•βCD) with guest [3]: 112.2 pS | residence time (τ) of guest [3]: 14.0 ms | single channel current level, additional block of αHL•βCD [3]: −4.7 pA | K^Af (formation constant of αHL•βCD•A) [3]: 1.35±0.19×10^5 M^−1 | ΔG of analyte binding to αHL•βCD [3]: -7.0 kcal/mol | binding to the pore without adapter/carrier [1]: does not bind to the pore

γ-cyclodextrin [γCD]
g (conductance) [2]: 328 pS and 328 ± 4 pS | block of the ionic current [1]: reversible partial blocks
